From patent US20250136576A1, “Heterocyclic Compounds and Uses Thereof” (ACEA Therapeutics, Inc., priority 2021, published 2025)

Assays:
Format in all cases: cell-based
MV-4-11 (AML) cells = experiment: Cell proliferation and growth inhibition assay (CCK-8) in MV-4-11; conditions: Homo sapiens, MV4-11; MV-4-11 cells, treated with test compounds for 72 hrs, CCK-8 viability
Method: MV-4-11 and H1975 cells were obtained from the American Type Culture Collection and KM12-luc cells were obtained from JCRB Cell Bank. All cell lines were maintained at 37° C. with 5% C02, in media supplemented with 10% fetal bovine serum and penicillin (100 units/mL) and streptomycin (100 μg/mL). MV-4-11 cells were maintained in Iscove's Modified Dubecco's Medium, H1975 cells were cultured with RPMI 1640 media, and KM12-luc cells were maintained in Dulbecco's Modification of Eagle's Medium. CCK-8 reagent was obtained from Yeasen.
Cell proliferation was assessed by CCK-8 assay (Yeasen) per the manufacturer's instructions. The MV-4-11 (AML), H1975, and KM12-luc cells were seeded at 30,000, 3,000 and 2,500 cells per well onto 96-well plates, and after a 24 h incubation, the cells were treated with test compounds for 72 hrs. Cell viability was assayed by incubating the cells with CCK-8 reagent for 1-4 hrs. Absorbance was measured at OD450 using the Beckman DTX880. The data was calculated using GraphPad Prism version 6.01. The IC50 values were fitted using a non-linear regression model with a sigmoidal dose response.

H1975 cells = experiment: Cell proliferation and growth inhibition assay (CCK-8) in H1975; conditions: Homo sapiens, NCI-H1975, 72 h, treated with test compounds for 72 hrs, CCK-8 viability, read-out: EGFR IC50 in H1975
Summary of the method: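 Cells seeded at 30,000 (MV-4-11, IMDM) or 3,000 (H1975, RPMI 1640) per well, left 24 h, then compound-treated 72 h at 37 °C, 5% CO2, 10% FBS. Viability read by CCK-8 (1–4 h) at OD450. IC50 from sigmoidal dose-response nonlinear regression.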

KM12-luc cells = experiment: Cell proliferation and growth inhibition assay (CCK-8) in KM12-luc; conditions: KM12-luc cells, treated with test compounds for 72 hrs, CCK-8 viability; read-out: NTRK IC50 in KM12-luc
Summary of the method: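 Cells were grown at 37 °C, 5% CO2 with 10% FBS: MV-4-11 in IMDM, H1975 in RPMI 1640, KM12-luc in DMEM. Viability was read by CCK-8 (1-4 hrs reagent incubation, absorbance at OD450). IC50 came from a non-linear sigmoidal dose-response fit.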

Cc1cccc2c(-c3nc(Nc4ccc(N5CC[C@H](N(C)C)C5)c(N)c4)ncc3Cl)cn(C)c12 [Compound S-425, (S)—N^1-(5-chloro-4-(1,7-dimethyl-1H-indol-3-yl)pyrimidin-2-yl)-4-(3-(dimethylamino)pyrrolidin-1-yl)benzene-1,3-diamine]
IC50 (MV-4-11 (AML) cells): 3.2 nM
IC50 (H1975 cells): 167 nM
IC50 (KM12-luc cells): 3.5 nM

CC(=O)Nc1cc(Nc2ncc(Cl)c(-c3cn(C)c4c(C)cccc34)n2)ccc1N1CC[C@H](N(C)C)C1 [Compound S-426, (S)—N-(5-((5-chloro-4-(1,7-dimethyl-1H-indol-3-yl)pyrimidin-2-yl)amino)-2-(3-(dimethylamino)pyrrolidin-1-yl)phenyl)acetamide]
IC50 (MV-4-11 (AML) cells): 4.2 nM
IC50 (H1975 cells): 189 nM
IC50 (KM12-luc cells): 2.7 nM
